What was measured:
[1] = target: T1, EGFR (aa668-1210, Invitrogen) (Homo sapiens, UniProt P00533); assay: Biochemical EGFR inhibition assay (TR-FRET), wild-type EGFR; conditions: ATP at Km, 15 min pre-incubation, 60 min reaction; read-out: WT (Km ATP) IC50
T1 construct: EGFR (aa668-1210, Invitrogen); purchased Invitrogen
Procedure, shortened: (§1)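 Signal was the 665 nm/620 nm emission ratio (excitation 337 nm) from anti-phosphotyrosine Eu cryptate and streptavidin-XL665 bound to phosphorylated biotin-poly GT. Reactions ran 60 min at room temperature with ATP at its Km after 15 min compound preincubation. Residual activity versus concentration was fitted to a four-parameter logistic for IC50.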

[2] = target: T2, EGFR(L858R_T790M_C797S) (aa695-end, Invitrogen) (Homo sapiens, UniProt P00533, C797S/L858R/T790M); assay: Biochemical EGFR inhibition assay (TR-FRET), L858R/T790M/C797S mutant; conditions: ATP at Km, 15 min pre-incubation, 60 min reaction; read-out: LR_TM_CS (Km ATP) IC50
T2 construct: purchased Invitrogen
T2 sequence (P00533 695-1210 T790M/C797S/L858R): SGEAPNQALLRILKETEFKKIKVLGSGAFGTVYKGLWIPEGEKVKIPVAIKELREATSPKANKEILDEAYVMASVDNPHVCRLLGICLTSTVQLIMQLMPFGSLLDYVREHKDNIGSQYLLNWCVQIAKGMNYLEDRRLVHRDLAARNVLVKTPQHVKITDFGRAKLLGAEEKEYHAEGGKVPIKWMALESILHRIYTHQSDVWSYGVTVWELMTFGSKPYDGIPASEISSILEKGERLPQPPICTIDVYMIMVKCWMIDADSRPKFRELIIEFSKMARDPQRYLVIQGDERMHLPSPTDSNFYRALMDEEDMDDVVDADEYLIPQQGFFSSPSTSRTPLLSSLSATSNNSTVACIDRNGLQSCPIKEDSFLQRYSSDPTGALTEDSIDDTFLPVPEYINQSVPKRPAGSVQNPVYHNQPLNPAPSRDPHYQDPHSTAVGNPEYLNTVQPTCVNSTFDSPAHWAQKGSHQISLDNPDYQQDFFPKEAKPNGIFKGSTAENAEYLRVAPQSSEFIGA
Procedure, shortened: as §1

[3] = target: EGFR(Dell9_T790M_C797S) (aa 669-1210, in house) (Homo sapiens, UniProt P00533, T790M/C797S, form not given); assay: Biochemical EGFR inhibition assay (TR-FRET), Del19/T790M/C797S mutant; conditions: ATP at Km, 15 min pre-incubation, 60 min reaction; read-out: Del_TM_CS (Km ATP) IC50
EGFR(Dell9_T790M_C797S) (aa 669-1210, in house), sequence (P00533 with tags, fused parts or gaps DEL746-750/T790M/C797S, form open): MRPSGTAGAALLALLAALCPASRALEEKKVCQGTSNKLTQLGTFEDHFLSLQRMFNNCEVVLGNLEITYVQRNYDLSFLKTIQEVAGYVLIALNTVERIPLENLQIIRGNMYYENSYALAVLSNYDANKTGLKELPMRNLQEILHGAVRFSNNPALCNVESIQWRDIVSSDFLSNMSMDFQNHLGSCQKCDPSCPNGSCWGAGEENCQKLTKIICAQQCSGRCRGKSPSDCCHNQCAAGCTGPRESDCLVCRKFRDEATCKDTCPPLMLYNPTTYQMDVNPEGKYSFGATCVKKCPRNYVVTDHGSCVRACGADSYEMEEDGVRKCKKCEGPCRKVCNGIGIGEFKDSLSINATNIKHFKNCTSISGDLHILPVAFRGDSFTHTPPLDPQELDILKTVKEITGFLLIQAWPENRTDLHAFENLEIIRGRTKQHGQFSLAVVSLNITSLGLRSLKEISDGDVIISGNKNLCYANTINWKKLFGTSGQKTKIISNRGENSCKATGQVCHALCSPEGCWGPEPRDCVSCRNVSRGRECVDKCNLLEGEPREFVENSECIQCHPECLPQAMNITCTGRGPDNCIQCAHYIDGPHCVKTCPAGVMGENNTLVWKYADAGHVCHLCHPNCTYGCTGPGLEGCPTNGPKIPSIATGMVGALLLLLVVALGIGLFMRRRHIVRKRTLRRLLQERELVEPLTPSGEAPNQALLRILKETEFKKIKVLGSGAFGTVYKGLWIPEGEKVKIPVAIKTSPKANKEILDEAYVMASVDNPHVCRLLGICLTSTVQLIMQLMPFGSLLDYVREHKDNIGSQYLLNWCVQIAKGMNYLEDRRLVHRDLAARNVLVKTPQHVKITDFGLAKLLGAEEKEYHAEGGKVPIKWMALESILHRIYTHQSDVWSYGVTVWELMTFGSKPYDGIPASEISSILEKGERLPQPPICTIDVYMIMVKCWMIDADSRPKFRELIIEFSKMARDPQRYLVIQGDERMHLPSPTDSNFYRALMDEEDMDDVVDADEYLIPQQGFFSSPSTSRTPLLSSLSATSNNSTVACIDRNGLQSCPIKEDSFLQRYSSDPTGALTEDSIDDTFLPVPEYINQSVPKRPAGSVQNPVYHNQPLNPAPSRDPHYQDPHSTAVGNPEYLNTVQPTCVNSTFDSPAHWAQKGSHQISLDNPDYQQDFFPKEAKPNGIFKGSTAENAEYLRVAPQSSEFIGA
Procedure, shortened: as §1

[4] = target: BaF3-WT cells (Homo sapiens, UniProt P00533); assay: Cell antiproliferation assay (CellTiter-Glo), BaF3-WT; type: cell-based; conditions: 48 h treatment, read-out: BaF3-WT IC50
Procedure, shortened: (§2)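 Cells exposed 48 h to 8 doses from 5-fold serial dilution (500× DMSO stocks from 5 mM), final 0.2% DMSO. Viability by CellTiter-Glo luminescence; IC50 from four-parameter fit of percent inhibition versus concentration.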

[5] = target: BaF3-LR_TM_CS cells (Homo sapiens, UniProt P00533, T790M/C797S/L858R, cells depend on it); assay: Cell antiproliferation assay (CellTiter-Glo), BaF3-LR_TM_CS; type: cell-based; conditions: 48 h treatment, read-out: BaF3-LR_TM_CS IC50
BaF3-LR_TM_CS cells, sequence (P00533 whole entry T790M/C797S/L858R): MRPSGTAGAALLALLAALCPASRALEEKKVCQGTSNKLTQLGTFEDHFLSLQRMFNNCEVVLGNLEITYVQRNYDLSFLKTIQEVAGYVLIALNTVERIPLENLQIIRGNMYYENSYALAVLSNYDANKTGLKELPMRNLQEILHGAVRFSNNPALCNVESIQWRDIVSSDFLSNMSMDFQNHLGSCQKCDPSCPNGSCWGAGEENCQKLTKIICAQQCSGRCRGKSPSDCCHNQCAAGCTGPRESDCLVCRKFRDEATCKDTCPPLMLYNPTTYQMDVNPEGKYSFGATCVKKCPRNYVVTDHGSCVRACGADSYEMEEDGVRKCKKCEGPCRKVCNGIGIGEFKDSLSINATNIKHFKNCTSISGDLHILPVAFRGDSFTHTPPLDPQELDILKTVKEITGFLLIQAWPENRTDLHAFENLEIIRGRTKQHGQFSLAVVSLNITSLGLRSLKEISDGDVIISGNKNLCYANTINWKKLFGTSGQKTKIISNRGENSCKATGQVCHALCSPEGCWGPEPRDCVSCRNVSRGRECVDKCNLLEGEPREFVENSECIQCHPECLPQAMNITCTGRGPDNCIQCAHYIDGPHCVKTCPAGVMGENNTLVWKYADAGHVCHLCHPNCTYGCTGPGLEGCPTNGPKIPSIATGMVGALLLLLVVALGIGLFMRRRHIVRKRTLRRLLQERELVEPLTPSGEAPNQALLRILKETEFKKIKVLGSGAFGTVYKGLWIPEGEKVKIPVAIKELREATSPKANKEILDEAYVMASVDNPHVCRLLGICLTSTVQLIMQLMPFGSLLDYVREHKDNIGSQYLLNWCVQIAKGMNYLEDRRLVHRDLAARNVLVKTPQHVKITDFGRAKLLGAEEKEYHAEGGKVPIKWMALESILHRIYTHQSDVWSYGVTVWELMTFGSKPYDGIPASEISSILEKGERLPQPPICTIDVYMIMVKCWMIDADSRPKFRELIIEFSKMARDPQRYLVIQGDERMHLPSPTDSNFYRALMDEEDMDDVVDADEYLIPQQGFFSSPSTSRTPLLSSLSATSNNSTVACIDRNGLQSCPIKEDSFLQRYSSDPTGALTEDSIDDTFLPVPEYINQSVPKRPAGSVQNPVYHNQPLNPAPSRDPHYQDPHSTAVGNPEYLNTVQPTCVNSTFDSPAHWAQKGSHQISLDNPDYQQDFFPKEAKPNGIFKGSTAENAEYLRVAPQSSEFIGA
Procedure, shortened: as §2

[6] = target: BaF3-Del_TM_CS cells (Homo sapiens, UniProt P00533, T790M/C797S, cells depend on it, form not given); assay: Cell antiproliferation assay (CellTiter-Glo), BaF3-Del_TM_CS; type: cell-based; conditions: 48 h treatment, read-out: BaF3-Del_TM_CS IC50
BaF3-Del_TM_CS cells, sequence (P00533 with tags, fused parts or gaps DEL746-750/T790M/C797S, form open): as the sequence (P00533 with tags, fused parts or gaps DEL746-750/T790M/C797S, form open) above
Procedure, shortened: as §2

T1 sequence (P00533 668-1210): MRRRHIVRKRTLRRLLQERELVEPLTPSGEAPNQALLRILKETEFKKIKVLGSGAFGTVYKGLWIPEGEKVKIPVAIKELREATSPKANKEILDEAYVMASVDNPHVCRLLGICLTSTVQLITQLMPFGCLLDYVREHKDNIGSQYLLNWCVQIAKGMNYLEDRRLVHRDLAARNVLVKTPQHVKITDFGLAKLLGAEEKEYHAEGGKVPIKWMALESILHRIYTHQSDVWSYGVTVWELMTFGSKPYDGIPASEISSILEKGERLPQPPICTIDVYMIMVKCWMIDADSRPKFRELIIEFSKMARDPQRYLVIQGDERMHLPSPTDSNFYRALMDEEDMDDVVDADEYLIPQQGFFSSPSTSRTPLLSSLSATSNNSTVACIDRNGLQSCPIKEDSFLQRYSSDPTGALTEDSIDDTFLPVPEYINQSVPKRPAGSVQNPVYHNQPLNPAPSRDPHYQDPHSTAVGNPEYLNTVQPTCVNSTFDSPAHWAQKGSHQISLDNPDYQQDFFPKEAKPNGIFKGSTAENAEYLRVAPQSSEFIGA

| SMILES | IC50 [1] [nM] | IC50 [2] [nM] | IC50 [3] [nM] | GI50 [4] [nM] | GI50 [5] [nM] | GI50 [6] [nM] |
| --- | --- | --- | --- | --- | --- | --- |
| CCOc1cc(N2CCC(N3CCN(C)CC3)CC2)c(C)cc1Nc1nc(Nc2cccc3c2N(S(C)(=O)=O)CC3)c2cc[nH]c2n1 [Example 93, N^2-(2-ethoxy-5-methyl-4-(4-(4-methylpiperazin-1-yl)piperidin-1-yl)phenyl)-N^4-(1-(methylsulfonyl)indolin-7-yl)-7H-pyrrolo[2,3-d]pyrimidine-2,4-diamine] | 110 | 1.5 | 2.6 | 1520 | 218 | 54.1 |
| COc1cc(N2CCC(N3CCN(C)CC3)CC2)ccc1Nc1ncc(Cl)c(Nc2cccc3c2N(C(C)=O)CC3)n1 [Example 17, 1-(7-((5-chloro-2-((2-methoxy-4-(4-(4-methylpiperazin-1-yl)piperidin-1-yl)phenyl)amino)pyrimidin-4-yl)amino)indolin-1-yl)ethan-1-one] | 21 | 6.7 | 15 | 1710 | 366 | 183 |
| COc1cc(N2CCC(N3CCN(C)CC3)CC2)c(C)cc1Nc1nc(Nc2cccc3c2N(S(C)(=O)=O)CC3)c2cc[nH]c2n1 [Example 91, N^2-(2-methoxy-5-methyl-4-(4-(4-methylpiperazin-1-yl)piperidin-1-yl)phenyl)-N^4-(1-(methylsulfonyl)indolin-7-yl)-7H-pyrrolo[2,3-d]pyrimidine-2,4-diamine] | 17 | 0.42 | 0.94 | 949 | 40.5 | 12.8 |
| CN(C)C1CCN(c2ccc(Nc3nc(Nc4cccc5c4N(S(C)(=O)=O)CC5)c4cc[nH]c4n3)c3c2CCO3)CC1 [Example 124, N^2-(4-(4-(dimethylamino)piperidin-1-yl)-2,3-dihydrobenzofuran-7-yl)-N^4-(1-(methylsulfonyl)indolin-7-yl)-7H-pyrrolo[2,3-d]pyrimidine-2,4-diamine] | 107 | 1 | 1 | 460 | 106 | 39.1 |
| COc1cc(N2CCC(N3CCN(C)CC3)CC2)ccc1Nc1ncc(Cl)c(Nc2cccc3c2N(S(=O)(=O)C(C)(C)C)CC3)n1 [Example 9, N^4-(1-(tert-butylsulfonyl)indolin-7-yl)-5-chloro-N^2-(2-methoxy-4-(4-(4-methylpiperazin-1-yl)piperidin-1-yl)phenyl)pyrimidine-2,4-diamine] | 187 | 13 | 186 | 1640 | 428 | 455 |
| COc1cc(C2CCN(CCO)CC2)c(C)cc1Nc1nc(Nc2cccc3c2N(S(C)(=O)=O)CC3)c2cc[nH]c2n1 [Example 108, 2-(4-(5-methoxy-2-methyl-4-((4-((1-(methylsulfonyl)indolin-7-yl)amino)-7H-pyrrolo[2,3-d]pyrimidin-2-yl)amino)phenyl)piperidin-1-yl)ethan-1-ol] | 104 | 1.9 | 2.2 | 2140 | 464 | 181 |
| COc1cc(C2CCC(N(C)C)CC2)c(C)cc1Nc1nc(Nc2cccc3c2N(S(C)(=O)=O)CC3)c2cc[nH]c2n1 (stereo not drawn) [Example 104, N^2-(4-(4-(dimethylamino)cyclohexyl)-2-methoxy-5-methylphenyl)-N^4-(1-(methylsulfonyl)indolin-7-yl)-7H-pyrrolo[2,3-d]pyrimidine-2,4-diamine] | 332 | 3.4 | 5.3 | 1490 | 195 | 128 |
| COc1cc(N2CCN(C)[C@@H](C)C2)c(C)cc1Nc1nc(Nc2cccc3c2N(S(C)(=O)=O)CC3)c2cc[nH]c2n1 [Example 105, (S)—N^2-(4-(3,4-dimethylpiperazin-1-yl)-2-methoxy-5-methylphenyl)-N^4-(1-(methylsulfonyl)indolin-7-yl)-7H-pyrrolo[2,3-d]pyrimidine-2,4-diamine] | 455 | 5.3 | 10 | 2090 | 240 | 87 |
| COc1cc(N2CCC3(CC2)CN(C)C3)c(C)cc1Nc1nc(Nc2cccc3c2N(S(C)(=O)=O)CC3)c2cc[nH]c2n1 [Example 100, N^2-(2-methoxy-5-methyl-4-(2-methyl-2,7-diazaspiro[3.5]nonan-7-yl)phenyl)-N^4-(1-(methylsulfonyl)indolin-7-yl)-7H-pyrrolo[2,3-d]pyrimidine-2,4-diamine] | 49 | 0.92 | 1 | 1590 | 116 | 39.9 |
| COc1cc(N2CCC(N3CCN(C)CC3)CC2)ccc1Nc1ncc(Cl)c(Nc2cccc3c2N(S(C)(=O)=O)C(C)C3)n1 (stereo not drawn) [Example 18, 5-chloro-N^2-(2-methoxy-4-(4-(4-methylpiperazin-1-yl)piperidin-1-yl)phenyl)-N^4-(2-methyl-1-(methylsulfonyl)indolin-7-yl)pyrimidine-2,4-diamine] | 2.3 | 0.4 | 0.68 | 422 | 16.5 | 7.47 |
| COc1cc(N2CC3(CN(C)C3)C2)c(F)cc1Nc1nc(Nc2cccc3c2N(S(C)(=O)=O)CC3)c2cc[nH]c2n1 [Example 97, N^2-(5-fluoro-2-methoxy-4-(6-methyl-2,6-diazaspiro[3.3]heptan-2-yl)phenyl)-N^4-(1-(methylsulfonyl)indolin-7-yl)-7H-pyrrolo[2,3-d]pyrimidine-2,4-diamine] | 206 | 2.4 | 4.3 | 1930 | 240 | 104 |

These reach a lower IC50 [1]. Values come first.

| IC50 [1] [nM] | IC50 [2] [nM] | IC50 [3] [nM] | GI50 [4] [nM] | GI50 [5] [nM] | GI50 [6] [nM] | SMILES |
| --- | --- | --- | --- | --- | --- | --- |
| 0.56 | 0.41 | 0.22 | 414 | 25.9 | 10 | COc1cc(N2CCC(N(C)C)CC2)ccc1Nc1ncc(Cl)c(Nc2cccc3c2N(S(C)(=O)=O)CC3)n1 [Example 36, 5-chloro-N^2-(4-(4-(dimethylamino)piperidin-1-yl)-2-methoxyphenyl)-N^4-(1-(methylsulfonyl)indolin-7-yl)pyrimidine-2,4-diamine] |
| 0.88 | 1.9 | 0.54 | 570 | 246 | 62.8 | COc1cc(N2CCC(N3CCN(C)CC3)CC2)ccc1Nc1ncc(F)c(Nc2cccc3c2N(S(C)(=O)=O)CC3)n1 [Example 32, 5-fluoro-N^2-(2-methoxy-4-(4-(4-methylpiperazin-1-yl)piperidin-1-yl)phenyl)-N^4-(1-(methylsulfonyl)indolin-7-yl)pyrimidine-2,4-diamine] |
| 0.49 | 0.27 | 0.17 | 466 | 57.2 | 12 | COc1cc(N2CCC(N3CCN(C)CC3)CC2)ccc1Nc1ncc(Cl)c(Nc2ccc(C)c3c2N(S(C)(=O)=O)CC3)n1 [Example 4, 5-chloro-N^2-(2-methoxy-4-(4-(4-methylpiperazin-1-yl)piperidin-1-yl)phenyl)-N^4-(4-methyl-1-(methylsulfonyl)indolin-7-yl)pyrimidine-2,4-diamine] |
| 0.72 | 0.21 | 0.24 | 427 | 13 | 4.25 | COc1cc(N2CCC(N3CCN(C)CC3)CC2)ccc1Nc1ncc(Br)c(Nc2cccc3c2N(S(C)(=O)=O)CC3)n1 [Example 34, 5-bromo-N2-(2-methoxy-4-(4-(4-methylpiperazin-1-yl)piperidin-1-yl)phenyl)-N4-(1-(methylsulfonyl)indolin-7-yl)pyrimidine-2,4-diamine] |
| 0.78 | 0.21 | 0.36 | 230 | 4.91 | 1.56 | COc1cc(N2CCC(N3CCN(C)CC3)CC2)c(C)cc1Nc1ncc(Br)c(Nc2cccc3c2N(S(C)(=O)=O)CC3)n1 [Example 40, 5-bromo-N^2-(2-methoxy-5-methyl-4-(4-(4-methylpiperazin-1-yl)piperidin-1-yl)phenyl)-N^4-(1-(methylsulfonyl)indolin-7-yl)pyrimidine-2,4-diamine] |
| 0.23 | 0.14 | 0.14 | 604 | 222 | 79.9 | COc1cc(N2CCC(N3CCN(C)CC3)CC2)ccc1Nc1ncc(C)c(Nc2cccc3c2N(S(C)(=O)=O)CC3)n1 [Example 35, N^2-(2-methoxy-4-(4-(4-methylpiperazin-1-yl)piperidin-1-yl)phenyl)-5-methyl-N^4-(1-(methylsulfonyl)indolin-7-yl)pyrimidine-2,4-diamine] |
